In paper PMC9965906, “Discovery and Development Strategies for SARS-CoV-2 NSP3 Macrodomain Inhibitors” (Pathogens, 2023):
Where “and” joins values, the source holds several entries; their conditions need not be identical. Equal values may be shown once. Where a name gives a salt, the structure may show the parent alone. Read-outs that look alike come from different tables or passages of the source.

Biological target: SARS-CoV-2 NSP3 Mac1 (Severe acute respiratory syndrome coronavirus 2, UniProt P0DTD1)
Experiment: biochemical
Assay type: binding
Details: for inhibition at 125 µM: read-out: Inhibition at top concentration of 125 µM (%); for NSP3 Mac1 inhibition at 50 µM (%) / inhibition at 50 µM: FDA-approved compound library primary screen, single shot; for IC50: read-out: IC50
[1] = MIDAS hit compounds and analogues
[2] = MIDAS hit compounds and analogues, top concentration 125 µM, 8-point 1:1 dilution, duplicate
[3] = MIDAS compound library primary screen
[4] = BioAscent virtual screening hit compounds, duplicate

Compound: CN(C)C(=O)c1cncc(-c2ccnc3c2ccn3C)n1 [IAL-MD0135, O=C(C1=NC(C2=C3C(N(C)C=C3)=NC=C2)=CN=C1)N(C)C]
- inhibition at 125 µM [1]: 18.3%
- IC50 in µM [2]: Not measurable

Compound: COc1ccc(C(=O)CC(=O)c2ccc(C(C)(C)C)cc2)cc1 [Avobenzone, reference compound]
- NSP3 Mac1 inhibition at 50 µM (%): 62%
- inhibition at 50 µM: 61.8%

Compound: O=C(Nc1ccc2cc[nH]c2c1)c1csc(NCC2CCCO2)n1 (stereo not shown) [ARUK4000671-001-001, O=C(Nc1ccc2cc[nH]c2c1)c1csc(n1)NCC1CCCO1]
- inhibition at 25 µM [3]: 106%

Compound: CC(C)n1ncc2c(C(=O)N3CCNC(=O)C3)cc(-c3ccco3)nc21 [IAL-MD0070, CC(C)N1N=CC=2C(=CC(=NC12)C3=CC=CO3)C(=O)N4CCNC(=O)C4]
- inhibition at 125 µM [1]: 83.2%
- IC50 [2]: 16.3 µM

Compound: O=c1ccsn1-c1ccc(F)c(Cl)c1 [BCC0125028, O=c1ccsn1-c1ccc(F)c(Cl)c1]
- inhibition at 25 µM [4]: 57.5%

Compound: CC(C)n1ncc2c(C(=O)N3CCCC3)cc(-c3cccs3)nc21 [IAL-MD0083, CC(C)N1N=CC=2C(=CC(=NC12)C3=CC=CS3)C(=O)N4CCCC4]
- inhibition at 125 µM [1]: 47.4%
- IC50 in µM [2]: Not measurable

Compound: O=C1c2c(O)ccc(O)c2C(=O)c2c(NCCNCCO)ccc(NCCNCCO)c21 [Mitoxantrone hydrochloride, reference compound]
- IC50 (FDA-approved hit compounds re-supplied, top concentration 125 µM): 14.1 µM and ~14 µM

Compound: CCn1ncc2c(C(=O)N3CCCC3c3ccc(OC)cc3)cc(-c3cccs3)nc21 (stereo not shown) [IAL-MD0066, CCN1N=CC=2C(=CC(=NC12)C3=CC=CS3)C(=O)N4CCCC4C=5C=CC(OC)=CC5]
- inhibition at 125 µM [1]: 13.5%
- IC50 in µM [2]: Not measurable

Compound: CC(=O)c1ccc(-c2ccc(N)cc2)o1 [BCC0119417, CC(=O)c1ccc(-c2ccc(N)cc2)o1]
- inhibition at 25 µM [4]: 59.3%

Compound: COc1ccc(-c2cc(C(=O)Nc3cccnc3)c3ccccc3n2)cc1 [IAL-MD0100, COC=1C=CC(=CC1)C=2C=C(C(=O)NC=3C=CC=NC3)C=4C=CC=CC4N2]
- inhibition at 125 µM [1]: 15.9%
- IC50 in µM [2]: Not measurable

Compound: Cn1ccc2c(-c3ncccc3C(=O)N3CCCCC3)ccnc21 [IAL-MD0138, O=C(C1=CC=CN=C1C2=C3C(N(C)C=C3)=NC=C2)N4CCCCC4]
- inhibition at 125 µM [1]: 79.4%
- IC50 [2]: 36 µM

Compound: Cn1ccc2c(-c3cc(C(=O)N4CCCC4)ccn3)ccnc21 [IAL-MD0139, O=C(C1=CC(C2=C3C(N(C)C=C3)=NC=C2)=NC=C1)N4CCCC4]
- inhibition at 125 µM [1]: 21.7%
- IC50 in µM [2]: Not measurable

Compound: N.N.O=C([O-])C1(C(=O)[O-])CCC1.[Pt+2] [Carboplatin, reference compound]
- NSP3 Mac1 inhibition at 50 µM (%): 97.3%
- outcome of dose-response titration (FDA-approved hit compounds, top concentration 125 µM): strong assay interference

Compound: Cc1nn(C)c2nc(-c3cccs3)cc(C(=O)NCc3ccccn3)c12 [IAL-MD0048, CC1=NN(C)C=2N=C(C=C(C(=O)NCC=3C=CC=CN3)C12)C4=CC=CS4]
- inhibition at 125 µM [1]: 15.8%
- IC50 in µM [2]: Not measurable

Compound: COc1ccc(-c2cc(C(=O)Nc3ccc4ccccc4c3)c3ccccc3n2)cc1 [IAL-MD0118, COC=1C=CC(=CC1)C=2C=C(C(=O)NC=3C=CC=4C=CC=CC4C3)C=5C=CC=CC5N2]
- inhibition at 125 µM [1]: 25.6%
- IC50 in µM [2]: Not measurable

Compound: O=C(O)c1cc(O)c2c(c1)[C@H]([C@H]1c3cc(C(=O)O)cc(O)c3C(=O)c3c(O[C@@H]4O[C@H](CO)[C@@H](O)[C@H](O)[C@H]4O)cccc31)c1cccc(O[C@@H]3O[C@H](CO)[C@@H](O)[C@H](O)[C@H]3O)c1C2=O [Sennoside A, reference compound]
- NSP3 Mac1 inhibition at 50 µM (%): 112%
- inhibition at 50 µM: 112%

Compound: CCn1ncc2c(C(=O)NCC(=O)N(C)C)cc(-c3cccs3)nc21 [IAL-MD0074, CCN1N=CC=2C(=CC(=NC12)C3=CC=CS3)C(=O)NCC(=O)N(C)C]
- inhibition at 125 µM [1]: 77.7%
- IC50 [2]: 25.3 µM

Compound: C=CC1=C(C)c2cc3[nH]c(cc4nc(cc5[nH]c(cc1n2)c(C)c5CCC(=O)O)C(CCC(=O)O)=C4C)c(C)c3C=C [Protoporphyrin IX, reference compound]
- inhibition at 50 µM: 75%

Compound: COc1ccc(-c2cc(C(=O)O)c3ccccc3n2)cc1OC [IAL-MD0094, COC=1C=CC(=CC1OC)C=2C=C(C(=O)O)C=3C=CC=CC3N2]
- inhibition at 125 µM [1]: 31.9%
- IC50 in µM [2]: Not measurable

Compound: Cn1ccc2c(-c3ccc(C(=O)NC4CC4)o3)ccnc21 [IAL-MD0132, O=C(NC1CC1)C2=CC=C(C3=C4C(N(C)C=C4)=NC=C3)O2]
- Inhibition at top concentration of 125 µM (%) [1]: Not measurable due to compound precipitation
- IC50 [2]: 7.2 µM

Compound: Cn1ccc2c(-c3ccc(Cn4ccnc4)cn3)ccnc21 [IAL-MD0145, CN1C=CC2=C(C3=NC=C(CN4C=CN=C4)C=C3)C=CN=C21]
- inhibition at 125 µM [1]: 81.1%
- IC50 [2]: 14 µM

Compound: Nc1c(C(=O)NC2CC2)sc2nc(-c3ccccn3)ccc12 [IAL-MD0017, O=C(C1=C(N)C2=CC=C(C3=NC=CC=C3)N=C2S1)NC4CC4]
- inhibition at 25 µM [3]: 58.7%
- inhibition at 125 µM [1]: 79.6%
- IC50 [2]: 12.6 µM

Compound: Nc1ccc2nc3c(=O)[nH]c(=O)[nH]c3nc2c1 [BCC0091906, Nc1ccc2nc3c(=O)[nH]c(=O)[nH]c3nc2c1]
- inhibition at 25 µM [4]: 56.2%

Compound: Cn1ccc2c(-c3ccc(C(=O)N4CCCC4)cn3)ccnc21 [IAL-MD0142, O=C(C1=CN=C(C2=C3C(N(C)C=C3)=NC=C2)C=C1)N4CCCC4]
- inhibition at 125 µM [1]: 37.9%
- IC50 in µM [2]: Not measurable

Compound: CC(=O)c1ccc(-c2ccc(N)cc2)s1 [IAL-MD0305, CC(=O)c1ccc(-c2ccc(N)cc2)s1]
- inhibition at 187 µM (BioAscent hit compounds, 187 µM, read-out: Inhibition at top screening concentration of 187 µM): 63.1%
- Hill slope (BioAscent hit compounds, confirmatory IC50 curves): 0.6
- IC50 (BioAscent hit compounds, top concentration 187 µM, 8-point 1:1 dilution, duplicate): 28 µM
- inhibition at 25 µM [4]: 56.2%

Compound: CC(C#N)NC(=O)c1cc(-c2cccs2)nc2c1cnn2C(C)C (stereo not shown) [IAL-MD0095, CC(C)N1N=CC=2C(=CC(=NC12)C3=CC=CS3)C(=O)NC(C)C#N]
- inhibition at 125 µM [1]: 19.8%
- IC50 in µM [2]: Not measurable

Compound: CCn1ncc2c(C(=O)N(C)Cc3ccccc3C)cc(-c3cccs3)nc21 [IAL-MD0042, CCN1N=CC=2C(=CC(=NC12)C3=CC=CS3)C(=O)N(C)CC=4C=CC=CC4C]
- inhibition at 125 µM [1]: 20.9%
- IC50 in µM [2]: Not measurable

Compound: CC(C)NC(=O)c1ccc(-c2ccnc3c2ccn3C)o1 [IAL-MD0130, O=C(NC(C)C)C1=CC=C(C2=C3C(N(C)C=C3)=NC=C2)O1]
- Inhibition at top concentration of 125 µM (%) [1]: Not measurable due to compound precipitation
- IC50 [2]: 7.6 µM

Compound: Cc1cc2nn(-c3ccccc3)nc2cc1N [BCC0086077, Cc1cc2nn(-c3ccccc3)nc2cc1N]
- inhibition at 25 µM [4]: 67.8%

Compound: CC(C)n1ncc2c(C(=O)N3CCNC(=O)C3)cc(-c3cccs3)nc21 [IAL-MD0064, CC(C)N1N=CC=2C(=CC(=NC12)C3=CC=CS3)C(=O)N4CCNC(=O)C4]
- inhibition at 125 µM [1]: 78.7%
- IC50 [2]: 25 µM and 25.2 µM

Compound: Oc1c(Cl)cc(Cl)c(Cl)c1Cc1c(O)c(Cl)cc(Cl)c1Cl [Hexachlorophene, reference compound]
- inhibition at 50 µM: 85.5%

Compound: O=c1c2ccccc2[se]n1-c1ccccc1 [Ebselen, reference compound]
- NSP3 Mac1 inhibition at 50 µM (%): 107%
- inhibition at 50 µM: 108%
- Hill slope (FDA-approved hit compounds, confirmatory HTRF assays): 4.94

Compound: Cn1ccc2c(-c3ccc(C(=O)N4CCCCC4)cn3)ccnc21 [IAL-MD0128, O=C(C1=CN=C(C2=C3C(N(C)C=C3)=NC=C2)C=C1)N4CCCCC4]
- inhibition at 25 µM [3]: 58%
- Inhibition at top concentration of 125 µM (%) [1]: Not measurable due to compound precipitation
- IC50 [2]: ~3.1 µM and 3.1 µM
- assay effects in dose-response titration (MIDAS hits and analogues, higher compound concentrations): assay interference effects at higher compound concentrations

Compound: CC(C)n1ncc2c(C(=O)N3CCNC(=O)C3)cc(-c3ccc4c(c3)OCCO4)nc21 [IAL-MD0044, CC(C)N1N=CC=2C(=CC(=NC12)C=3C=CC=4OCCOC4C3)C(=O)N5CCNC(=O)C5]
- inhibition at 125 µM [1]: 30.2%
- IC50 in µM [2]: Not measurable

Compound: COc1ccc(-c2cc(C(=O)O)c3cc(NC(C)=O)ccc3n2)cc1 [IAL-MD0031, COC=1C=CC(=CC1)C=2C=C(C(=O)O)C=3C=C(NC(=O)C)C=CC3N2]
- inhibition at 25 µM [3]: 48%
- inhibition at 125 µM [1]: 81.3%
- IC50 [2]: 19 µM and 19.3 µM

Compound: CC(C)n1ncc2c(C(=O)N(C)Cc3cccc(O)c3)cc(-c3cccs3)nc21 [IAL-MD0104, CC(C)N1N=CC=2C(=CC(=NC12)C3=CC=CS3)C(=O)N(C)CC=4C=CC=C(O)C4]
- inhibition at 125 µM [1]: 18.4%
- IC50 in µM [2]: Not measurable

Compound: CCN(C)C(=O)c1ccc(-c2ccnc3c2ccn3C)nc1 [IAL-MD0144, O=C(N(CC)C)C1=CN=C(C2=C3C(N(C)C=C3)=NC=C2)C=C1]
- inhibition at 125 µM [1]: 23.8%
- IC50 in µM [2]: Not measurable

Compound: CC(C)n1ncc2c(C(=O)N3CCNC(=O)C3)cc(-c3ccccc3)nc21 [IAL-MD0123, CC(C)N1N=CC=2C(=CC(=NC12)C=3C=CC=CC3)C(=O)N4CCNC(=O)C4]
- inhibition at 125 µM [1]: 1.8%
- IC50 in µM [2]: Not measurable

Compound: COc1cc(/C=C/C(=O)c2cc3ccccc3o2)cc(Br)c1O [BCC0117785, COc1cc(/C=C/C(=O)c2cc3ccccc3o2)cc(Br)c1O]
- inhibition at 25 µM [4]: 39.3%

Compound: CC(C)n1ncc2c(C(=O)N3CCNC(=O)C3(C)C)cc(-c3cccs3)nc21 [IAL-MD0075, CC(C)N1N=CC=2C(=CC(=NC12)C3=CC=CS3)C(=O)N4CCNC(=O)C4(C)C]
- inhibition at 125 µM [1]: 30.9%
- IC50 in µM [2]: Not measurable

Compound: NC(=O)[C@@H]1CCCN1C(=O)c1cc(-n2cccc2)ccc1Cl [ARUK4000702-001-001, NC(=O)[C@@H]1CCCN1C(=O)c1cc(ccc1Cl)-n1cccc1]
- inhibition at 25 µM [3]: 45.8%

Compound: O=c1cc(-c2ccc(Cl)cc2)oc2cc(OCC(O)CS(=O)(=O)c3ccc(Cl)cc3)ccc12 (stereo not shown) [BCC0030992, O=c1cc(-c2ccc(Cl)cc2)oc2cc(OCC(O)CS(=O)(=O)c3ccc(Cl)cc3)ccc12]
- inhibition at 25 µM [4]: 31.6%

Compound: CC(C)n1ncc2c(C(=O)Nc3ccn(C)n3)cc(-c3cccs3)nc21 [IAL-MD0090, CC(C)N1N=CC=2C(=CC(=NC12)C3=CC=CS3)C(=O)NC=4C=CN(C)N4]
- inhibition at 125 µM [1]: 11%
- IC50 in µM [2]: Not measurable
